Results reported in ChEMBL document CHEMBL1201862, “PubChem BioAssay data set” (2004).
Values belong to the compound of their own block, whether it stands above or below them. Calls of active or inactive are those of the source.

How the values were obtained:
HEK293 [1] = assay: cells; type: functional, cell-based; settings: Homo sapiens
HEK293 [2] = assay: cells; settings: Homo sapiens
HEK293 [3] = assay: NOD2 signaling inhibitors in MDP-stimulated cells, cell-based, uHTS, luminescence (AID 2001); type: functional; settings: Homo sapiens
HEK293 [4] = assay: cells; type: functional, cell-based; settings: Homo sapiens; remark: listed apart in the source
HEK293 [5] = assay: inhibition of NOD1-driven NF-kB reporter – cell-based, luminescence, uHTS, primary screen (AID 1578); type: functional; settings: Homo sapiens
HEK293 [6] = assay: cells; type: functional, cell-based; settings: Homo sapiens; remark: listed apart in the source
Hexokinase-1 = molecular target: T1, Hexokinase-1 (Homo sapiens, UniProt P19367); assay: SAR analysis of small molecule inhibitors of hexokinase domain containing I (HKDC1) in the hexokinase 1 selectivity assay. [Related pubchem assays (depositor defined):AID493160, AID493190]; type: functional
T1 sequence (P19367 whole entry): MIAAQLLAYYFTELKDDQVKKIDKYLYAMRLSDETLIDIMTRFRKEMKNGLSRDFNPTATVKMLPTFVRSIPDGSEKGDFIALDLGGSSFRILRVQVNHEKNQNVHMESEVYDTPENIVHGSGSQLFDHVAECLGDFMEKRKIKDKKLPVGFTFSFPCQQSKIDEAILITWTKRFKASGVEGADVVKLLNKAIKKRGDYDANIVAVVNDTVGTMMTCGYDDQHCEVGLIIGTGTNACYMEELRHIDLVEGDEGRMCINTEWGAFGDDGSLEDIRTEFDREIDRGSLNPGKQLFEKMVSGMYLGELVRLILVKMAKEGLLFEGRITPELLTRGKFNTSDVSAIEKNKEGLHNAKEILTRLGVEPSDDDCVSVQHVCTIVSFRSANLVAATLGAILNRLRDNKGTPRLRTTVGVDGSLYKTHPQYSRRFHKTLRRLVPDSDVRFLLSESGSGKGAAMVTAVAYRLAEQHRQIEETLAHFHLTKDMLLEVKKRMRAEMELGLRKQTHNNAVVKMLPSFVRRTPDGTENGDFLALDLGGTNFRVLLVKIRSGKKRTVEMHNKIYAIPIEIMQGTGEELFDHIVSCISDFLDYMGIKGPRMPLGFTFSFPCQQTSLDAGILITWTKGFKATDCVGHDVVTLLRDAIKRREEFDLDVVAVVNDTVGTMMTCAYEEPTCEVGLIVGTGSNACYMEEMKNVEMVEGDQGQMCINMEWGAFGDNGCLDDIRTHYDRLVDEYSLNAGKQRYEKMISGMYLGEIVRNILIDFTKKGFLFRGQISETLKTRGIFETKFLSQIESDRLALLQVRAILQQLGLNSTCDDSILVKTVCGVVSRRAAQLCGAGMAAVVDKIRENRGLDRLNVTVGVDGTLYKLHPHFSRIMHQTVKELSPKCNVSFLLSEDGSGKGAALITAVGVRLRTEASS

Hexokinase HKDC1 = molecular target: T2, Hexokinase HKDC1 (Homo sapiens, UniProt Q2TB90); assay: SAR analysis of small molecule inhibitors of hexokinase domain containing I (HKDC1). [Related pubchem assays (depositor defined):AID493160, AID493190]; type: functional
T2 sequence (Q2TB90 whole entry): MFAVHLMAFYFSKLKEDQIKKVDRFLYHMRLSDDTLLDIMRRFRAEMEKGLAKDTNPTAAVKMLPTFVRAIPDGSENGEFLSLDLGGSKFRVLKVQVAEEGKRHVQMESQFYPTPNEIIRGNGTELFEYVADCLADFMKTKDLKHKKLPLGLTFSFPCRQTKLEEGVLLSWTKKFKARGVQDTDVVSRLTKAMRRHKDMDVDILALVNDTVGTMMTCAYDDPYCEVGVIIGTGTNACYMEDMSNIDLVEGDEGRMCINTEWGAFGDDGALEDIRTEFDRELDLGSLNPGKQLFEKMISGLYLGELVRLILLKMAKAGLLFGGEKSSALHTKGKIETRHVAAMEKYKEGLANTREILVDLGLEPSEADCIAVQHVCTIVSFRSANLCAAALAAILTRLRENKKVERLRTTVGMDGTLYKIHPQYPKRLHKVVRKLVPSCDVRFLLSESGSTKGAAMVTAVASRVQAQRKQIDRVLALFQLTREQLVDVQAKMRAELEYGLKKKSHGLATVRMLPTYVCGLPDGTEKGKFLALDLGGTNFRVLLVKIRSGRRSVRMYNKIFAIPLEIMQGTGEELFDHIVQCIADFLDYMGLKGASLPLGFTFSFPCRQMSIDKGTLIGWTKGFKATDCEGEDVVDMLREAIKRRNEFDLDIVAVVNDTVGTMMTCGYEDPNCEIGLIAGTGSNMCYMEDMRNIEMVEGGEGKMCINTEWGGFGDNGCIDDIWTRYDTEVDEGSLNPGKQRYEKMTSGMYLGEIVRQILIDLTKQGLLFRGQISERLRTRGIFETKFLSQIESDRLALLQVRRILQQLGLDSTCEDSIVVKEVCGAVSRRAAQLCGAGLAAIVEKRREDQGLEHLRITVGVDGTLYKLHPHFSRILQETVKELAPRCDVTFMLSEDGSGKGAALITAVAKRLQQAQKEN

Cytochrome P450 2D6 = Cytochrome P450 2D6 (Homo sapiens, UniProt P10635);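 note: CYP2D6 member of a cytochrome P450 panel assay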
Chain of Cytochrome P450 2D6 (P10635 whole entry, the tested form may be a part): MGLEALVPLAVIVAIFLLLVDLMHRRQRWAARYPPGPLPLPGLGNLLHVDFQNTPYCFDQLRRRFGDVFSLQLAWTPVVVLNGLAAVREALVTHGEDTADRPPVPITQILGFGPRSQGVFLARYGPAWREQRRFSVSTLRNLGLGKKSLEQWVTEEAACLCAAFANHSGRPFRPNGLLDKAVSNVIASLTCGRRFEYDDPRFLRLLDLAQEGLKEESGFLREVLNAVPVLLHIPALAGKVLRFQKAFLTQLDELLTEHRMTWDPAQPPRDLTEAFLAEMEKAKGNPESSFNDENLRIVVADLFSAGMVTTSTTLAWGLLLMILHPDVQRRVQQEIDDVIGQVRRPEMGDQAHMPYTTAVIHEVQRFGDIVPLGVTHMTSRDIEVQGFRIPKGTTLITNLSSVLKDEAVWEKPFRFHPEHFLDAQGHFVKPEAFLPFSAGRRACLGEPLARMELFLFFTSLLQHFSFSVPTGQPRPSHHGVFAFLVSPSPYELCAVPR

[7] = molecular target: T3, Nucleotide-binding oligomerization domain-containing protein 1 (Homo sapiens, UniProt Q9Y239); assay: blockers of NOD1 pathway activity – revised, SAR follow-up (AID 2333); type: functional
T3 sequence (Q9Y239 whole entry): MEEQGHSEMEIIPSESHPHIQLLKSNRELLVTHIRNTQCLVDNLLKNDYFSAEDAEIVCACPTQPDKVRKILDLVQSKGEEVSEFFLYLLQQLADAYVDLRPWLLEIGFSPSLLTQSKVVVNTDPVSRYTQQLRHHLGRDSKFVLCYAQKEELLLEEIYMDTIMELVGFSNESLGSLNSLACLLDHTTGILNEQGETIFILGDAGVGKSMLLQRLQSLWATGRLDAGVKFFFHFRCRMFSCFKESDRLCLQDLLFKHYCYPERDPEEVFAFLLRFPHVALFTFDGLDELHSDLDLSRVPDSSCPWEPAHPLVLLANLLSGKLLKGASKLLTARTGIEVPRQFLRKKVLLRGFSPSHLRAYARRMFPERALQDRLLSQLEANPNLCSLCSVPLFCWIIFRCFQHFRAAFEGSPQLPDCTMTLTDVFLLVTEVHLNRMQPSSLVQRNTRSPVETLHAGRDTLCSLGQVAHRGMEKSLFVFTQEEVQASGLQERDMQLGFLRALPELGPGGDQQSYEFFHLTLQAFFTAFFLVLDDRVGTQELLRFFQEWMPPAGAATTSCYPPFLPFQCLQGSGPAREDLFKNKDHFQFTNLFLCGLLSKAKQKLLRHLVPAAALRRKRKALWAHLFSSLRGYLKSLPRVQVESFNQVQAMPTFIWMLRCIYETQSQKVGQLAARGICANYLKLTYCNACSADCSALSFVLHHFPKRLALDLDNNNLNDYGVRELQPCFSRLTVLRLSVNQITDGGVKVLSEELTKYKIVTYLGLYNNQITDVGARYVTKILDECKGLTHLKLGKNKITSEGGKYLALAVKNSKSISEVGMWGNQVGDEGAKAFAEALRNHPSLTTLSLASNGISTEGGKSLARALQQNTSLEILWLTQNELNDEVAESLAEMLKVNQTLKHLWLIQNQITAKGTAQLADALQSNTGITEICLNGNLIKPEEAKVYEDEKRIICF

[8] = molecular target: Nucleotide-binding oligomerization domain-containing protein 2 (Homo sapiens, UniProt Q9HC29); assay: inhibition of NOD2-driven NF-kB reporter – cell-based, luminescence, uHTS, HEK293 (AID 1566); type: functional
Chain of Nucleotide-binding oligomerization domain-containing protein 2 (Q9HC29 whole entry, the tested form may be a part): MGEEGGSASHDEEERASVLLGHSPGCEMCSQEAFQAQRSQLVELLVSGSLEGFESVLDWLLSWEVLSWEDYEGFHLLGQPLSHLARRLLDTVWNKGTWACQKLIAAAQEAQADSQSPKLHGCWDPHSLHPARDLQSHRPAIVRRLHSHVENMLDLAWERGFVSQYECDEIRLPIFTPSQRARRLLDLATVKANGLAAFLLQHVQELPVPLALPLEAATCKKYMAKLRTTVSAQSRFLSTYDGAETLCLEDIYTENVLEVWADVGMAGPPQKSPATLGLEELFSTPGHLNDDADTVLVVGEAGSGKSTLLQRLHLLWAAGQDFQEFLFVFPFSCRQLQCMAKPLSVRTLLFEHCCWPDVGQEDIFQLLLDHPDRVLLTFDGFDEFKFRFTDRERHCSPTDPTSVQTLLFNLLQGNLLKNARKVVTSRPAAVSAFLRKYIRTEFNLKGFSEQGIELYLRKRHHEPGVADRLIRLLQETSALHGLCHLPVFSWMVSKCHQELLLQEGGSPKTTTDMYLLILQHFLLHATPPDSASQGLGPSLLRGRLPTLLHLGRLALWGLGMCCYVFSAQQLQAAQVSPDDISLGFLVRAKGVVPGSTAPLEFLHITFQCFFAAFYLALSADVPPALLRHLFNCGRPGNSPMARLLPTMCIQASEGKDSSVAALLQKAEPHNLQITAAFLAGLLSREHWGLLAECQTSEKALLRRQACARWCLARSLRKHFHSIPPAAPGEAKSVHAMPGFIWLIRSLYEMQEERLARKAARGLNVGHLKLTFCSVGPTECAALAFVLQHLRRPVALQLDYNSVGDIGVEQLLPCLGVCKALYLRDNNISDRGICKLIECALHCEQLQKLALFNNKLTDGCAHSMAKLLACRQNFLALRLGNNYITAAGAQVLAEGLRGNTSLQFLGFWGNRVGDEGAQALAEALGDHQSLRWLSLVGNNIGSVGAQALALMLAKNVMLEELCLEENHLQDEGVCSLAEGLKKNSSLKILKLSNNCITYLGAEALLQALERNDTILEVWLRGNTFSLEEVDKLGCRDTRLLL

Tumor necrosis factor = Tumor necrosis factor (Homo sapiens, UniProt P01375); assay: analog potency on TNFa NF-kB signaling – cell-based, revised, SAR follow-up (AID 2337); type: functional
Chain of Tumor necrosis factor (P01375 whole entry): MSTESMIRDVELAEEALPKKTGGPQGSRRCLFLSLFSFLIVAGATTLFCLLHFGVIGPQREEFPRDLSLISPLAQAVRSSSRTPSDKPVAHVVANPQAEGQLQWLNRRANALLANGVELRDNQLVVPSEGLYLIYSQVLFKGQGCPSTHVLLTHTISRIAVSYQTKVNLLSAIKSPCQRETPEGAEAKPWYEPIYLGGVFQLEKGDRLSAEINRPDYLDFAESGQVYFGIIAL

Cytochrome P450 2C19 = Cytochrome P450 2C19 (Homo sapiens, UniProt P33261); assay: Cytochrome panel assay with activity outcomes. Panel member name: p450-cyp2c19 Compounds with AC50 equal or less than 10 uM are considered active; type: functional; settings: read-out: AC50
Chain of Cytochrome P450 2C19 (P33261 whole entry): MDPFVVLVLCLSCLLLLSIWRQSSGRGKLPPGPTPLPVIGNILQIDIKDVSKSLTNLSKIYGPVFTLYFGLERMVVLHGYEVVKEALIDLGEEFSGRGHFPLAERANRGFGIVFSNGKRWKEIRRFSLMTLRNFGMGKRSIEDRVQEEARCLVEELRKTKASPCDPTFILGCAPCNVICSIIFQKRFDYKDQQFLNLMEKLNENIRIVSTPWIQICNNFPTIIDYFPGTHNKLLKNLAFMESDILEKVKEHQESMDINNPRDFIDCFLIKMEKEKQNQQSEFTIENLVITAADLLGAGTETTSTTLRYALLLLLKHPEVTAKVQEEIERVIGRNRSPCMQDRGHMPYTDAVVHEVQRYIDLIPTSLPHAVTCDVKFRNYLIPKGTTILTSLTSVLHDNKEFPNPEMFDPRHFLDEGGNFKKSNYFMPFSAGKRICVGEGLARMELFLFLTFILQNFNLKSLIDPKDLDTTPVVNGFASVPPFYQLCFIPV

SUMO-activating enzyme = SUMO-activating enzyme (Homo sapiens, UniProt Q9UBT2); assay: blockers of UBC9-mediated SUMO conjugation – biochemical, AlphaScreen, SUMOylation inhibitor project, confirmation (AID 2018); type: functional
Chain of SUMO-activating enzyme (Q9UBE0 whole entry): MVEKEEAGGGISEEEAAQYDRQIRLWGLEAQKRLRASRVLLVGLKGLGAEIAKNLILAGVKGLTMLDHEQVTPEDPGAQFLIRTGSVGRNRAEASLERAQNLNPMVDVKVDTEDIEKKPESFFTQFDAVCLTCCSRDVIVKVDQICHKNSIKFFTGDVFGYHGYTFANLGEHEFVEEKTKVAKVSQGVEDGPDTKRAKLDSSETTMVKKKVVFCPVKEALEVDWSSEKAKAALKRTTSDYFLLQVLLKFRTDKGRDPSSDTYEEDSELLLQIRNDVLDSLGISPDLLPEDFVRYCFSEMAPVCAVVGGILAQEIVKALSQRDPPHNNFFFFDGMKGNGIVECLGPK
Chain of SUMO-activating enzyme (Q9UBT2 whole entry): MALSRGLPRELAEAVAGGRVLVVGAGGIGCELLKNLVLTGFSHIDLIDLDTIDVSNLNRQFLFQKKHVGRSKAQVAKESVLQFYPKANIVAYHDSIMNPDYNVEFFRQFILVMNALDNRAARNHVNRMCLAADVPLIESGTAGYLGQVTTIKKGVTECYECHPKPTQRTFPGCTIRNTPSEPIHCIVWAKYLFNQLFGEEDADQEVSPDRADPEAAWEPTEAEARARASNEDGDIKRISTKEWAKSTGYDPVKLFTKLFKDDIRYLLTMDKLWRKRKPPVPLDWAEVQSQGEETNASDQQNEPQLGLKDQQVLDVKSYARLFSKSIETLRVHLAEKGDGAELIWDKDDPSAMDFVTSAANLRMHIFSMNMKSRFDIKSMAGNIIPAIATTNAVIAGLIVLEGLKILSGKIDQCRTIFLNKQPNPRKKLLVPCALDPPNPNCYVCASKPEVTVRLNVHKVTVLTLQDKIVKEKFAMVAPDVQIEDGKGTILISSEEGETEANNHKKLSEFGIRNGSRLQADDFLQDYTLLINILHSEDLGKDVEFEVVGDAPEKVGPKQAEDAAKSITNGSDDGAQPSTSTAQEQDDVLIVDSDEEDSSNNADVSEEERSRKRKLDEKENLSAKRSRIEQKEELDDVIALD

[9] = reduction of Shn3 3'UTR-driven luciferase in osteoblasts – cell-based, Clone20 osteoblasts, firefly luciferase, cherry-picked, dose response (AID 624132); type: functional;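 note: firefly luciferase luminescence from reporter carrying the Shn3 3'UTR in osteoblasts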
[10] = non-specific 3'UTR reporter inhibition in Clone20-Shn3RL – cell-based, Renilla luciferase, cherry-picked, counter-screen for Shn3 inhibitor project, dose response (AID 624133); type: functional
[11] = molecular target: T4, COUP transcription factor 2 (Homo sapiens, UniProt P24468); assay: Luminescence-based cell-based high throughput dose response assay to identify inhibitors of COUP-TFII (NR2F2).; type: functional;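 note: HEK293 cells transiently cotransfected with COUP-TFII expression vector and reporter; luciferase reporter luminescence driven by COUP-TFII from the pX2-168 reporter plasmid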
T4 sequence (P24468 whole entry): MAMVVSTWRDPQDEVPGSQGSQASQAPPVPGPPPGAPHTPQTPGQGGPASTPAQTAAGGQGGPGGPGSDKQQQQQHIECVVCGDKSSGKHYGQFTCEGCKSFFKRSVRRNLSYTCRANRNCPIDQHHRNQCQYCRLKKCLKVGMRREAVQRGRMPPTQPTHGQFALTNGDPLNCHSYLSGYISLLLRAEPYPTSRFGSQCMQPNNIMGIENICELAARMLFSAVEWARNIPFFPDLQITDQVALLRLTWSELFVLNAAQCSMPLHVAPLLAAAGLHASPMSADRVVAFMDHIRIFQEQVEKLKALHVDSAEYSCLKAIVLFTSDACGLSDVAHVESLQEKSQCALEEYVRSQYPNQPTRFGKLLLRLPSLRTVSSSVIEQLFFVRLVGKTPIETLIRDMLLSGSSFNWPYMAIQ

INS1 = assay: INS-1E survival protection against cytokine death – cell-based, luminescence, retest, dose response (AID 449756); type: functional; settings: Rattus norvegicus;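 note: cell death triggered by IL-1 beta plus TNF-alpha plus IFN-gamma mixture; protective hits raise ATP signal compared with cytokine alone wells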
Cytochrome P450 2C9 = Cytochrome P450 2C9 (Homo sapiens, UniProt P11712)
Chain of Cytochrome P450 2C9 (P11712 whole entry): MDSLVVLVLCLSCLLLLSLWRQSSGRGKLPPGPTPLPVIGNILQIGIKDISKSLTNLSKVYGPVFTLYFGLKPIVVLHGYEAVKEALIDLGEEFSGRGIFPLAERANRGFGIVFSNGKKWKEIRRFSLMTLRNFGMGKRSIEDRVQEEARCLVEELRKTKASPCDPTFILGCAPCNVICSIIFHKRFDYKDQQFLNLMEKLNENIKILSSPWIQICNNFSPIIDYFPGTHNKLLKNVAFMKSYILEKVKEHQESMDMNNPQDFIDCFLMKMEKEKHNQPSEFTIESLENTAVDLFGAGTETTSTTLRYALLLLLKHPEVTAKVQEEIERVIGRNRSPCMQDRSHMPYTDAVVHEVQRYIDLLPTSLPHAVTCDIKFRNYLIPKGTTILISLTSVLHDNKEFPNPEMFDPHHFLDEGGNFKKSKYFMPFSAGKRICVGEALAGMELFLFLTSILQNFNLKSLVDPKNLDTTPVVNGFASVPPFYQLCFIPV

Structure (SMILES): Cc1nn(-c2ccccc2)c2nc(C(Cl)(Cl)Cl)nc(O)c12
IC50 (HEK293 [1]): > 20 µM (inactive)
IC50 (HEK293 [2]): > 20 µM (inactive)
IC50 (HEK293 [3]): 17.9 µM (inactive)
IC50 (HEK293 [4]): > 20 µM (inactive)
EC50 (HEK293 [5]): 12.4 µM (active)
IC50 (HEK293 [6]): > 20 µM (inactive)

Structure (SMILES): O=C(c1ccc(S(=O)(=O)c2cccc(Cl)c2)c([N+](=O)[O-])c1)N1CCN(c2ccccn2)CC1
IC50 (HEK293 [1]): > 20 µM (inactive)
IC50 (HEK293 [2]): 8.21 µM (active)
IC50 (HEK293 [3]): 1.95 µM (active)
IC50 [7]: 1.4 µM (active)
EC50 [8]: 12.3 µM (active)
IC50 (Tumor necrosis factor): 4.43 µM (active)
IC50 (HEK293 [4]): 1.72 µM (active)
EC50 (HEK293 [5]): 10.1 µM (active)
IC50 (HEK293 [6]): 10.4 µM (active)

Structure (SMILES): CO[C@H]1COC(=O)[C@@H](Cc2ccccc2)NC(=O)[C@@H](C)COC(=O)CCC[C@@H]1C
AC50 (Cytochrome P450 2D6): inconclusive

Structure (SMILES): O=C(CCN1C(=O)C2C3C=CC(C3)C2C1=O)Nc1ccc2ncccc2c1 (stereo not drawn)
AC50 (Cytochrome P450 2D6): inconclusive
AC50 (Cytochrome P450 2C19): 20 µM (inconclusive)

Structure (SMILES): O=S(=O)(Nc1ccc(O)c2ccccc12)c1ccc(Cl)cc1
IC50 (Hexokinase-1): > 80 µM (inactive)
IC50 (Hexokinase HKDC1): 15.6 µM (active)

Structure (SMILES): Cc1cc(C(=O)NC2CCCc3c2cnn3-c2ccc(C)c(C)c2)n(C)n1 (stereo not drawn)
AC50 [9]: < 0.26 µM (active)
IC50 (HEK293 [2]): > 20 µM (inactive)
IC50 [7]: 0.0431 µM (active)
AC50 [10]: < 0.26 µM (active)
IC50 (Tumor necrosis factor): 0.0793 µM (active)
IC50 [11]: > 0.117 µM (active)
AC50 (INS1): 0.24 µM (active)

Structure (SMILES): CC(C)[C@](N)(C(=O)O)c1ccccc1
AC50 (Cytochrome P450 2D6): inconclusive

Structure (SMILES): CCN(CC)S(=O)(=O)c1cccc(NC(=O)COC(=O)c2[nH]c(C)c(C(C)=O)c2C)c1
IC50 [11]: 5.62 µM (active)

The remaining lines, values ahead:

IC50 (Hexokinase-1): > 80 µM (inactive)
IC50 (Hexokinase HKDC1): > 80 µM (inactive)
Structure (SMILES): O=c1c2ccccc2nc(/C=C/c2ccccc2)n1CCc1ccccc1

AC50 (Cytochrome P450 2D6): inconclusive
Structure (SMILES): CO/N=C(/C)CCC(=O)OC[C@@H]1O[C@H](C#Cc2ccccc2)C=C[C@@H]1Oc1ccc(C)cc1

IC50 (Hexokinase-1): > 80 µM (inactive)
IC50 (Hexokinase HKDC1): > 80 µM (inactive)
Structure (SMILES): Cc1ccc(C)c(S(=O)(=O)Nc2cccc3ccccc23)c1

IC50 (SUMO-activating enzyme): 41.3 µM (active)
Structure (SMILES): Cc1cc(OC(C(=O)O)c2ccccc2)c2c(C)c(Cc3ccccc3)c(=O)oc2c1 (stereo not drawn)

AC50 (Cytochrome P450 2D6): inconclusive
AC50 (Cytochrome P450 2C9): 5.01 µM (inconclusive)
Structure (SMILES): C/C(=N/NC(=O)c1ccc(NC(=O)c2ccc(F)cc2)cc1)c1ccccc1

IC50 [11]: 13.8 µM (inactive)
Structure (SMILES): NC(=O)c1ccsc1NC(=O)COC(=O)Cc1cccc2ccccc12
